Test results as given in US8211883B2, “Topical delivery of phthalocyanines” (priority 2004, dated 2012).

Assays:
[1] = Solubility; type: physicochemical
[2] = test system: Chinese hamster V79-379 lung fibroblasts; experiment: Clonogenic cell survival of V79 cells after photodynamic treatment; type: cell-based; conditions: for CF10(AIPcCI)/CF10 (Pc) / F10(AIPcCI)/F10 (Pc): 1.0 μM; for CF10(AIPcCI)/CF10 (Pc): CF10 = product of intracellular concentration and fluence reducing survival to 10%; for F10(AIPcCI)/F10 (Pc): F10 = fluence reducing cell survival to 10%
Method in brief: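 V79 cells exposed to 0.5 or 1.0 μM phthalocyanine, then irradiated about 18 h later with increasing fluences of broad-band red light (600 nm high-pass filter). Survival scored as colonies of ≥50 cells. F10 taken from survival curves; CF10 from survival against intracellular concentration × fluence; 1 μM AlPcCl run as reference.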

[3] = test system: L5178Y cells; experiment: Induction of apoptosis (DNA ladder) in L5178Y cells after PDT; type: cell-based, Mouse; conditions: for Fluence, Minimum Demonstrated Condition to Induce Apoptosis / C × F Ld90, Minimum Demonstrated Condition to Induce Apoptosis: 0.5 μM; for Fluence, Minimum Demonstrated Condition to Induce Apoptosis: suspended in DMF-Tween 80; for C × F Ld90, Minimum Demonstrated Condition to Induce Apoptosis: suspended in DMF-Tween 80, product of concentration and fluence; for induction of apoptosis: 1 μM at a fluence of 30 kJ/m^2
Protocol: The cells were used while in exponential growth. Stock solutions of either 0.5 or 1 mM of PcIV, PcXII, PcX, PcXVIII were prepared in dimethylformamide unless otherwise indicated and added to the 10 mL medium at a rate of 1 μL per mL. After allowing 18 hours for uptake of the phthalocyanine into the cells, the flasks containing the cultures were placed on a glass exposure tray above a 500-W tungsten-halogen lamp. The exposure tray was fitted with a 600-nm high-pass filter. Flasks were exposed to various fluences of red light (up to 30 kJ/m^2) at a fluence rate of approximately 74 W/m^2). After irradiation, the cells were collected by centrifugation.
The aliquots were plated in sufficient numbers to produce 50-200 colonies. The dishes were kept in an incubator at 37° C. in an atmosphere of 5% CO2 and 95% air for 10-14 days to allow viable cells to form colonies. Colonies were counted by eye. […] The plating efficiencies of the treated cells are normalized to the plating efficiencies of control cells in each experiment.
Cells were treated with various concentrations of the compounds listed in the table and various light fluences. DNA gels were prepared and examined for the characteristic “ladder” pattern of DNA fragments. For each Pc, the minimum total PDT dose tested (calculated as the product of the minimum phthalocyanine concentration and the minimum fluence) which produced visible DNA fragments is recorded. […] PcXVIII was also added at 0.5 and 1.0 μM.

[4] = test system: Chinese hamster V79-379 lung fibroblasts; experiment: Growth delay of V79 cultures after phthalocyanine and red light; type: cell-based; conditions: V79 cells, 1.0 μM, 18 hours, 12 kJ/m^2 red light
Protocol: At the time of light exposure, there were approximately 1.5×10^5 cells per 25 cm^2 flask. Following irradiation, the HBSS was replaced by 10 mL of fresh complete growth medium, and the cultures were returned to the 37° C. incubator. At various times before and after irradiation, duplicate cultures were trypsinized and counted. Controls included untreated cells and cells treated with light alone or drug alone. In addition, in each experiment, the drug to be tested was compared to a standard treatment, i.e. 1 μM AlPcCl for 18 hours followed by 12 kJ/m^2 light.
The inhibition of V79 culture growth was measured during a three day period following red light irradiation (12 kJ/m^2) of phthalocyanine-pretreated cells. With each of the active compounds, as well as with AlPcCl, there was an initial decrease in cell density, as dead cells became detached from the monolayer. Thereafter, the cell number per flask increased, as living cells grew and divided. The time for the cell density to recover to the level at the time of light exposure was considered the growth delay. […] The ratio of the growth delay for the test photosensitizer and the growth delay for AlPcCl measured in the same experiment is recorded in Table 1. There was less inhibition of culture growth when cells were exposed to compounds III, V, or VI as expected from the poor cellular uptake of these drugs.

[5] = test system: Chinese hamster V79-379 lung fibroblasts; experiment: Uptake of phthalocyanines into V79 cells; conditions: V79 cells, 1.0 μM, 18 hours
Method in brief: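 V79-379 cells were incubated with phthalocyanine for 18 h, typically at 1, 2 and/or 4 μM. Cells collected on filters were extracted into ethanol and absorbance read at the peak, usually 668 nm. Values are nmol per 10^6 cells, using ε 2.93×10^5.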

[6] = Photolysis of solutions by white light; type: physicochemical
[7] = test system: human breast cancer MCF-7c3 cells; experiment: Uptake of PcIV salts into MCF-7c3 cells by flow cytometry; conditions: 50, 100 or 200 nM, 60 minutes, mean channel fluorescence normalized to PcIV
Protocol: Cells were grown in 5 mL of RPMI-1640 medium supplemented with 10% fetal calf serum in 60-mm diameter Petri dishes in a 37° C. incubator in an atmosphere of 5% CO2, 95% air. Cultures were used when they were in exponential growth. For experiments, various concentrations (50, 100, or 200 nM) of each compound (PcIV, PcIV-HCl, PcIV-pyruvate), were added to the medium above the cells, and the dishes were returned to the incubator for 60 minutes to allow the photosensitizers to enter the cells. To evaluate uptake, the medium was removed, and the cells were detached from the plastic surface with trypsin and collected by centrifugation. The cell pellet was suspended in phenol-red-free Hank's balanced salt solution and analyzed by flow cytometry (λex=335-355 nm; emission collected through a 650-nm long-pass filter). For each cell sample, the data were expressed as the mean channel fluorescence and background was subtracted. Data for each concentration of the PcIV salts were then normalized to those for the same concentration of PcIV in the same experiment. […] Error bars represent the standard deviation of the mean.

[8] = test system: human skin keratome biopsies; experiment: Penetration of topically applied PcIV and salts into human skin, confocal fluorescence microscopy; type: in vitro ADME; conditions: compared to PcIV
Protocol: Human skin absorption of PcIV was analyzed by fluorescence confocal microscopy. PcIV fluorescence, upon activation with a HeNe laser at 633 nm, was visualized using a 650 long pass filter. Briefly, 0.4 mm thick human keratomes were removed from the gluteal region of healthy volunteers and divided into 1.5 cm×1.5 cm squares of skin. Upon application of PcIV to the epidermis in a vehicle of ethanol and propylene glycol, visualization of penetration of PcIV was achieved by fluorescence. Pc 4 was then prepared as PcIV-pyruvate and PcIV-HCl and applied in the same vehicle as Pc 4 to the epidermis. Three concentrations, namely, 0.1 mg/mL, 0.05 mg/mL, and 0.01 mg/mL were tested per PcIV formulation. Skin was incubated at 37° C. for 1, 2, and 4 hours, along with vehicle controls. […] Maximum PcIV fluorescence was detectable using laser transmission of 3% for the 0.1 mg/mL and 30% for the 0.01 mg/mL. Both PcIV.pyruvate and PcIV.HCl however could be visualized with a laser transmission of 2-3% for the 0.1 mg/mL and 7-9% for the 0.01 mg/mL concentrations.
The ability of PcIV and the newly prepared PcIV salts (HCl and pyruvate) to penetrate into the epidermis of keratome derived biopsies was examined. The time course of penetrance as well as the effect of dose of the PcIV compounds were evaluated. PcIV and the PcIV.HCl and PcIV.pyruvate salts were resuspended in ethanol (100%, 1 part PcIV, 499 parts ethanol) and then diluted to final concentrations in a 30% Propylene Glycol 70% Ethanol mixture.
Keratome biopsies of normal skin were obtained from normal volunteers after written consent according to UHHS IRB protocol # 05-95-03. To date, seven experiments have been performed. The range of age for volunteers was 20-40 yrs. Individuals represented Fitzpatrick skin types between I-III. Skin biopsies were held in PBS following the keratome procedure until processed for PcIV Application (less than 1 hr). The keratome skin samples (1.5 cm^2) were overlayed onto sterile gauze in 80 mm tissue culture petri dishes epidermal side down. PcIV compounds were then applied to the corners of the sterile gauze and allowed to “wick” through the gauze and contact the epidermis of the skin for the indicated times. Following the incubation, the tissue was removed from the gauze and washed three times in phosphate buffered saline and held, in PBS, until analysis by confocal microscopy. Confocal images were acquired using a 20×N.A. 0.5 water immersion objective on a Zeiss 510 confocal microscope. PcIV fluorescence was elicited using a 633 nm wavelength for excitation, and collected with a 633 nm dichroic mirror and 650 nm long-pass filter.

[9] = test system: RIF-1 (radiation-induced fibrosarcoma) tumors; experiment: PDT of RIF-1 implanted tumors; type: in vivo, C3H/HeN mice; design: key to Tumor Responses at 24 hours: complete: no evidence of any tumor mass in any animal; only the scar from the photodynamic therapy was evident.; near complete: evidence of any tumor mass in four or five animals; only some tumor mass in one or two animals.; substantial: a significant tumor shrinkage occurred in all animals. In some animals the tumor response was complete, yet in others the response was not complete.; moderate: some tumor shrinkage was evident in some animals. In animals with some tumor shrinkage, scar formation was evident.; slight: some tumor decrease occurred in one or two mice; conditions: 1 mg/kg in corn oil, 675 nm
Protocol: The relative effectiveness at reducing tumor volume of selected phthalocyanine compounds at a given dosage was compared in vivo. RIF-1, i.e., radiation-induced fibrosarcoma, tumors were implanted into the backs of C3H/HeN mice. One tumor was implanted per mouse. Each of the phthalocyanine compounds listed in Table 7 was sonicated and vortexed in corn oil to produce a suspension. When the tumors reached […] in diameter and 2-3 mm in thickness, each mouse received 1 mg/kg in 0.1 mL of the corn oil, of the phthalocyanine suspension. For comparison, select mice received a conventional photosensitizer; either 5 mg/kg of chloroaluminum phthalocyanine tetrasulfonate, herein also referred to as “AlPcTS” in phosphate buffered saline or 5 mg/kg of Photofrin®-II in 5% dextrose. Twenty-four hours after the photosensitizers were administered, the tumors were irradiated with visible radiation delivered by an argon-pumped dye laser. The mice that received a phthalocyanine photosensitizer received light having a wavelength of 675 nm and the mice that received the Photofrin® II photosensitizer received light having a wavelength of 630 nm. Each tumor received 135 J/cm^2 of radiation. Tumor size was measured every day using calipers. The initial tumor volume was 50±10 mm^3. Tumor volume was calculated according to the hemiellipsoid model by the formula: V=½(4π)/3×(½×(w/2))×h
• complete—no evidence of any tumor mass in any animal; only the scar from the photodynamic therapy was evident. • near complete—evidence of […] in four or five animals; only some tumor mass in one or two animals. • substantial—a significant tumor shrinkage occurred in all animals. In some animals the tumor response was complete, yet in others the response was not complete. • moderate—some tumor shrinkage was evident in some animals. In animals with some tumor shrinkage, scar formation was evident. • slight—some tumor decrease occurred in one or two mice.

Compound: CN1CCN(CCC[Si](C)(C)O[Si]2(O[Si](C)(C)CCCN3CCN(C)CC3)n3c4c5ccccc5c3N=C3N=C(N=c5c6ccccc6c(n52)=NC2=NC(=N4)c4ccccc42)c2ccccc23)CC1 [Compound XXX, SiPc[OSi(CH3)2(CH2)3NC4H8NCH3]2]
- solubility in DMF [1]: not soluble in DMF
- Maximum Effect (% survival at kj/m^2) ([2]; concentration not given, at 10 kj/m^2): 30% at 10
- Fluence, Minimum Demonstrated Condition to Induce Apoptosis [3]: 15.0 kJ/m^2
- C × F Ld90, Minimum Demonstrated Condition to Induce Apoptosis [3]: 7.5 kJ/m^2

Compound: CN(C)CCC[Si](C)(C)O[Si]1(C)n2c3c4ccccc4c2N=C2N=C(N=c4c5ccccc5c(n41)=NC1=NC(=N3)c3ccccc31)c1ccccc12 (centres unmarked) [Compound III, CH3SiPcOSi(CH3)2(CH2)3N(CH3)2]
- Growth Delay (12 kj/m^2), Efficiency Relative to 1 μM (AlPcCl) [4]: 0.05
- Uptake, Efficiency Relative to 1 μM (AlPcCl) [5]: 0.07
- photolysis of solutions [6]: rapidly photolyzed by white light

Compound: CC(=O)C(=O)O.CN(C)CCC[Si](C)(C)O[Si]1(O)n2c3c4ccccc4c2N=C2N=C(N=c4c5ccccc5c(n41)=NC1=NC(=N3)c3ccccc31)c1ccccc12 (centres unmarked) [PcIV-pyruvate, HOSiPcOSi(CH3)2(CH2)3N(CH3)2(CH3C(O)COOH)]
- efficiency in entering MCF-7c3 cells compared to PcIV [7]: at least as efficient, and possibly more efficient
- effect of salt formulation on penetration through the skin [8]: does not hinder the penetration

Compound: C[N+](C)(C)CCC[Si](C)(C)O[Si]1(O)n2c3c4ccccc4c2N=C2N=C(N=c4c5ccccc5c(n41)=NC1=NC(=N3)c3ccccc31)c1ccccc12.[I-] (centres unmarked) [Compound V, HOSiPcOSi(CH3)2(CH2)3N(CH3)3^+I^−]
- Tumor Responses at 24 hours ([9]; 135 J/cm^2, light 24 h after dosing): moderate
- Doubling Time of Initial Tumor Volume after PDT ([9]; 135 J/cm^2, controls 4 days): 6 days
- solubility in H2O [1]: insoluble
- Growth Delay (12 kj/m^2), Efficiency Relative to 1 μM (AlPcCl) [4]: 0
- CF10(AIPcCI)/CF10 (Pc) [2]: 3.0
- F10(AIPcCI)/F10 (Pc) [2]: 0.59
- induction of apoptosis [3]: did not induce apoptosis
- Uptake, Efficiency Relative to 1 μM (AlPcCl) [5]: 0.3

Compound: AlPcOSi(CH3)2(CH2)3N(CH3)3^+I^− [Compound II]
- solubility in H2O [1]: insoluble
- Growth Delay (12 kj/m^2), Efficiency Relative to 1 μM (AlPcCl) [4]: 3.4
- CF10(AIPcCI)/CF10 (Pc) [2]: 0.72
- F10(AIPcCI)/F10 (Pc) [2]: 0.99
- Uptake, Efficiency Relative to 1 μM (AlPcCl) [5]: 1.8

Compound: C[N+](C)(C)CCC[Si](C)(C)O[Si]1(O[Si](C)(C)CCC[N+](C)(C)C)n2c3c4ccccc4c2N=C2N=C(N=c4c5ccccc5c(n41)=NC1=NC(=N3)c3ccccc31)c1ccccc12.[I-].[I-] [Compound VI, SiPc[OSi(CH3)2(CH2)3N(CH3)3)^+I^−]2]
- solubility in H2O [1]: disperses in H2O but doses not dissolve in it
- Growth Delay (12 kj/m^2), Efficiency Relative to 1 μM (AlPcCl) [4]: 0.5
- induction of apoptosis [3]: did not induce apoptosis
- Uptake, Efficiency Relative to 1 μM (AlPcCl) [5]: 0.1

Compound: C[Si](C)(CCCN1CCNCC1)O[Si]1(O[Si](C)(C)CCCN2CCNCC2)n2c3c4ccccc4c2N=C2N=C(N=c4c5ccccc5c(n41)=NC1=NC(=N3)c3ccccc31)c1ccccc12 [Compound XXXII, SiPc[OSi(CH3)2(CH2)3NC4H8NH]2]
- solubility in DMF [1]: not soluble in DMF
- Fluence, Minimum Demonstrated Condition to Induce Apoptosis [3]: 5 kJ/m^2
- C × F Ld90, Minimum Demonstrated Condition to Induce Apoptosis [3]: 2.5 kJ/m^2
